Experimental data from patent publication US12590099B2, “Inhibitors of histone deacetylase useful for the treatment or prevention of HIV infection” (Merck Sharp & Dohme LLC, priority 2018, dated 2026).
Where two headings read alike, the source gives them in different places.

Tests used:
Type in all cases: biochemical
[1] = biological target: T1, Recombinant human HDAC3/SMRT heterodimer (Homo sapiens, UniProt O15379); experiment: Human HDAC enzyme inhibitor Fluor-de-Lys assay, HDAC3/SMRT
T1 construct: FLAG (C); made in house

[2] = biological target: T2, Recombinant human HDAC8 (Homo sapiens, UniProt Q9BY41); experiment: Human HDAC enzyme inhibitor Fluor-de-Lys assay, HDAC8
T2 construct: purchased Enzo Life Sciences BML-SE145-0100
T2 sequence (Q9BY41 1-377): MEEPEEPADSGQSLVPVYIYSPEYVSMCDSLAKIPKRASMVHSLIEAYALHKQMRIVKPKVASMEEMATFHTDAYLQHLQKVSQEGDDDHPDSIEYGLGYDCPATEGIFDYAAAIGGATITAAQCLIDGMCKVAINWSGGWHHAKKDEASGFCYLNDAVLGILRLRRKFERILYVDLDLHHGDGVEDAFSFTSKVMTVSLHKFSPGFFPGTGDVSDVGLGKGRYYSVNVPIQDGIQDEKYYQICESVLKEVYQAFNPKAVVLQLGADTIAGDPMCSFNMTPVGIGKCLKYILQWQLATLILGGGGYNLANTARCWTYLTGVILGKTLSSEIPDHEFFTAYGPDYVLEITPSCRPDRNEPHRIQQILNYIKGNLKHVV

[3] = biological target: T3, Recombinant human HDAC1 (Homo sapiens, UniProt Q13547); experiment: Human HDAC enzyme inhibitor Fluor-de-Lys assay, HDAC1
T3 construct: FLAG (C); made in house
Summary of the method: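 Fluor-de-Lys format at room temperature (23° C.): compounds titrated 10-point, 1:3, preincubated with HDAC before substrate addition; HDAC1 run at 0.3 nM enzyme with 20 μM BML-KI104. Developer with excess HDAC inhibitor ends the reaction, and trypsin-liberated AMC fluorescence is the read-out.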

[4] = biological target: T4, HDAC6 (Homo sapiens, UniProt Q9UBN7); experiment: Human HDAC enzyme inhibitor Fluor-de-Lys assay, HDAC6
T4 sequence (Q9UBN7 1-1215): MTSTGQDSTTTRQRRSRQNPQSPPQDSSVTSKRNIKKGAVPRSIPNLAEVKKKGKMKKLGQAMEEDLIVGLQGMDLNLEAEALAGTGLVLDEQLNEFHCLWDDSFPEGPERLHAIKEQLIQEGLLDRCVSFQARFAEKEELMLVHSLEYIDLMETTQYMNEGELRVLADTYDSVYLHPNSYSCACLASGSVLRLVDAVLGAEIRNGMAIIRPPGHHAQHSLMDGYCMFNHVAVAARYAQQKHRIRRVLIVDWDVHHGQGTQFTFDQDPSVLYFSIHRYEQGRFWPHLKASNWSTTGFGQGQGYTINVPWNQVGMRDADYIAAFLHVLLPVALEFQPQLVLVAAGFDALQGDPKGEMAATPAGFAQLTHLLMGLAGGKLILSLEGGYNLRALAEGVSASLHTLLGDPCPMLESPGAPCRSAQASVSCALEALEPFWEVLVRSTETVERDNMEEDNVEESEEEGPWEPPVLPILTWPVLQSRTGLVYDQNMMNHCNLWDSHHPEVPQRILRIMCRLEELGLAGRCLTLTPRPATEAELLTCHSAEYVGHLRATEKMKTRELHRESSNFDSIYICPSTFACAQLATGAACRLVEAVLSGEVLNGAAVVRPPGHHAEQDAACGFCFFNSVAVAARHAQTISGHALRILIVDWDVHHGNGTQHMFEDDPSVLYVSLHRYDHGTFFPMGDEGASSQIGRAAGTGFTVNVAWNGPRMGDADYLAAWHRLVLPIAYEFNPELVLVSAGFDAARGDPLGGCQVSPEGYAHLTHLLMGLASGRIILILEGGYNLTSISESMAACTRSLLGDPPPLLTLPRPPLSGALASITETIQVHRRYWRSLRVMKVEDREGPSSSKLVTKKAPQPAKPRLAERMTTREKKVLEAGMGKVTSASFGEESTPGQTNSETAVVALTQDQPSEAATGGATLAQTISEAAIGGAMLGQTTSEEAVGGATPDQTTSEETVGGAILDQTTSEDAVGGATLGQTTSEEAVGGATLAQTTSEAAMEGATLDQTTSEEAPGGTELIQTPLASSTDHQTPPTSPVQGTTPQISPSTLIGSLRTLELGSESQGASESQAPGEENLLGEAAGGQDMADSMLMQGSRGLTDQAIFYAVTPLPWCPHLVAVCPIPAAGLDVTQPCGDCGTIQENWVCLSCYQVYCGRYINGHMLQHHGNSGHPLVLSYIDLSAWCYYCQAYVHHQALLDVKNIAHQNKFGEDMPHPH

[5] = recombinant human HDAC3/SMRT, Fluor-de-Lys assay
[6] = recombinant human HDAC8, Fluor-de-Lys assay
[7] = recombinant human HDAC1, Fluor-de-Lys assay

T1 sequence (O15379 whole entry): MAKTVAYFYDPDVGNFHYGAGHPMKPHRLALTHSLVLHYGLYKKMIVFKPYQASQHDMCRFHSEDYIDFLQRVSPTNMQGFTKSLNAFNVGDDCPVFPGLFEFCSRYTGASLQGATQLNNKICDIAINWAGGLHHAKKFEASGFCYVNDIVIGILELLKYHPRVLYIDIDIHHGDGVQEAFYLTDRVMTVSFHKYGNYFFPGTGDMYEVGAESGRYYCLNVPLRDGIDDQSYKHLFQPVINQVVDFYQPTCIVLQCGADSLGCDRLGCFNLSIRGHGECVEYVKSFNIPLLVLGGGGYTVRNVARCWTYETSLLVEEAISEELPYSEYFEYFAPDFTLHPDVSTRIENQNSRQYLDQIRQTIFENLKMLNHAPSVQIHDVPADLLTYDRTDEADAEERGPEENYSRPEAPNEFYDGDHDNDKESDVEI
T1 sequence (Q9Y618 1-899 partner limits assumed): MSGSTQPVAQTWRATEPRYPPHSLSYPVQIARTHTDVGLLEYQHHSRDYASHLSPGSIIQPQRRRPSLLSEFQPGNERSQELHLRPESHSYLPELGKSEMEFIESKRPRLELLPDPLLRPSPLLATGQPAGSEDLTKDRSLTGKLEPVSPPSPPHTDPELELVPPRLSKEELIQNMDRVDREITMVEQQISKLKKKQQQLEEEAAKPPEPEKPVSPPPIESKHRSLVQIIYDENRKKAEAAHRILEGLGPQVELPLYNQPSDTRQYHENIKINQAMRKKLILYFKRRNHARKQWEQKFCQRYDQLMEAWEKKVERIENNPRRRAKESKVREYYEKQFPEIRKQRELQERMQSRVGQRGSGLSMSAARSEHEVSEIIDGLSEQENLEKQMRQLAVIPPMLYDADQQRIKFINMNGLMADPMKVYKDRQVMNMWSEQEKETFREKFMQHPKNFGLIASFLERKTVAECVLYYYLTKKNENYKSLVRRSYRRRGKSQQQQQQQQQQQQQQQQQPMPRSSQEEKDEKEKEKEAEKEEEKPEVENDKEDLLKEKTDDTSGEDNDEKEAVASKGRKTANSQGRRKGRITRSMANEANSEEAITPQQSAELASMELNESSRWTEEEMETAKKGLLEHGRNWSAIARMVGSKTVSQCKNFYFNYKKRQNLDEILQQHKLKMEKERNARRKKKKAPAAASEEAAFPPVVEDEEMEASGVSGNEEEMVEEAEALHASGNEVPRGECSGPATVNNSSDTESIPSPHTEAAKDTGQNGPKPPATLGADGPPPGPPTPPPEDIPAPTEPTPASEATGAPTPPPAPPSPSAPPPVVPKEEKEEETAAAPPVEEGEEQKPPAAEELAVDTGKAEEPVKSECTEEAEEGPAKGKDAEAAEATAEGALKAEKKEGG
T3 sequence (Q13547 whole entry): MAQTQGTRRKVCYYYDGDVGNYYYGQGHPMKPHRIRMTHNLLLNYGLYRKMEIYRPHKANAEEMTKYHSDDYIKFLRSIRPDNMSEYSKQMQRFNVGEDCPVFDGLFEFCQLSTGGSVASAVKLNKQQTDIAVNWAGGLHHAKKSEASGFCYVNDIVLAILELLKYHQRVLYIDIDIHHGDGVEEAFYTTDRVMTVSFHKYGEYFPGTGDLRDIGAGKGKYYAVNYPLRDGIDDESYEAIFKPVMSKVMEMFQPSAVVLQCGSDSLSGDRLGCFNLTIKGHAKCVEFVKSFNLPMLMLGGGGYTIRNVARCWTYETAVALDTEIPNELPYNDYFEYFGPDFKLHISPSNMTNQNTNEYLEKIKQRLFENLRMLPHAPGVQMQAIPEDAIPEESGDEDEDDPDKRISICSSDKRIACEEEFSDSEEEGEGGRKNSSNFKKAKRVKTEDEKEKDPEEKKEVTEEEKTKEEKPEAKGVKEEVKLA

| Structure (SMILES) | IC50 [1] [nM] | IC50 [2] [nM] | IC50 [3] [nM] | IC50 [4] [nM] | IC50 [1, 5] [nM] | IC50 [2, 6] [nM] | IC50 [3, 7] [nM] | IC50 ([4]; HDAC6, Fluor-de-Lys assay) [nM] |
| --- | --- | --- | --- | --- | --- | --- | --- | --- |
| CCC(=O)CCCCC[C@H](NC(=O)[C@H]1CC12CCN(C(C)C)CC2)c1ncc(-c2ccc3c(ccc(=O)n3C)c2)o1 [Compound 96] | 9.9 | > 45000 | 6.9 | 7300 | – | – | – | – |
| CCC(=O)CCCCC[C@H](NC(=O)[C@H]1CC12CCN(CC)CC2)c1ncc(-c2ccc3c(ccc(=O)n3C)c2)o1 [Compound 97] | 4.38 | > 45000 | 6.52 | 7090 | – | – | – | – |
| CCC(=O)CCCCC[C@H](NC(=O)[C@H]1CC12CCN(C(C)C)CC2)c1ncc(-c2ccc3nc(C4CC4)ccc3c2)[nH]1 [Compound 100] | < 1.5 | 8250 | < 1.5 | 11900 | – | – | – | – |
| CCC(=O)CCCCC[C@H](NC(=O)C1=NOC2(CCN(C)CC2)C1)c1ncc(-c2ccc(-c3cccnc3)cc2OC)o1 [Compound 222, N-{(1S)-1-[5-(2-methoxy-4-pyridin-3-ylphenyl)-1,3-oxazol-2-yl]-7-oxononyl}-8-methyl-1-oxa-2,8-diazaspiro[4.5]dec-2-ene-3-carboxamide] | – | – | – | – | 4.67 | > 900 | 1.61 | > 900 |
| CCC(=O)CCCCC[C@H](NC(=O)C1=NOC2(CCN(C)CC2)C1)c1ncc(-c2cc3cccnc3cc2OC)o1 [Compound 223] | – | – | – | – | 2.06 | > 900 | 1.54 | 237 |
| CCC(=O)CCCCC[C@H](N)c1ncc(-c2cc3ccc(=O)n(C)c3cc2OC)o1 [Compound 224] | – | – | – | – | 92.1 | > 900 | 38.7 | > 900 |
| CCC(=O)CCCCC[C@H](NC(=O)C1=NOC2(CCN(CC3CC3)CC2)C1)c1ncc(-c2cc3ccc(C)nc3cc2OC)o1 [Compound 225] | – | – | – | – | 1.14 | > 900 | 0.6 | 759 |
| CCC(=O)CCCCC[C@H](NC(=O)[C@H]1CC12CCN(CC1CC1)CC2)c1ncc(-c2cc3ccc(C)nc3cc2F)[nH]1 [Compound 228] | – | – | – | – | 0.19 | > 900 | 0.12 | > 900 |
| CCC(=O)CCCCC[C@H](NC(=O)[C@H]1CC12CCN(CC1CC1)CC2)c1ncc(-c2cc3ccn(C)c(=O)c3cc2OC)o1 [Compound 229] | – | – | – | – | 0.21 | > 900 | 0.09 | 451 |
| CCC(=O)CCCCC[C@H](NC(=O)C1=NOC2(CCN(C)CC2)C1)c1ncc(-c2cc3ccc(C)nc3cc2F)[nH]1 [Compound 232] | – | – | – | – | 4.47 | > 900 | 1.33 | > 900 |
| CCC(=O)CCCCC[C@H](NC(=O)C1=NOC2(CCN(CC)CC2)C1)c1ncc(-c2cc3ccc(C)nc3cc2F)[nH]1 [Compound 233] | – | – | – | – | 8.8 | > 900 | 3.59 | > 900 |
| CCC(=O)CCCCC[C@H](NC(=O)C1=NOC2(CCN(CC3CC3)CC2)C1)c1ncc(-c2cc3ccc(C)nc3cc2F)[nH]1 [Compound 234] | – | – | – | – | 2.99 | > 900 | 0.56 | > 900 |
| CCC(=O)CCCCC[C@H](NC(=O)C1=NOC2(CCN(CC)CC2)C1)c1ncc(-c2cc3ccc(=O)n(C)c3cc2OC)o1 [Compound 235] | – | – | – | – | 2.19 | > 900 | 0.7 | > 900 |
| CCC(=O)CCCCC[C@H](NC(=O)C1=NOC2(CCN(CC3CC3)CC2)C1)c1ncc(-c2cc3ccc(=O)n(C)c3cc2OC)o1 [Compound 236] | – | – | – | – | 1.07 | > 900 | 0.36 | > 900 |
| CCC(=O)CCCCC[C@H](NC(=O)C1=NOC2(CCN(C)CC2)C1)c1ncc(-c2ccc(-c3cnccn3)cc2OC)o1 [Compound 237, N-{(1S)-1-[5-(2-methoxy-4-pyrazin-2-ylphenyl)-1,3-oxazol-2-yl]-7-oxononyl}-8-methyl-1-oxa-2,8-diazaspiro[4.5]dec-2-ene-3-carboxamide] | – | – | – | – | 6.06 | > 900 | 2.41 | > 900 |
| CCC(=O)CCCCC[C@H](NC(=O)[C@H]1CC12CCN(CC)CC2)c1ncc(-c2ccc3nn(C4CC4)cc3c2)[nH]1 [Compound 238] | – | – | – | – | 0.27 | 6500 | 0.22 | 7780 |
| CCCC(=O)CCCCC[C@H](NC(=O)[C@H]1CC12CCN(C)CC2)c1ncc(-c2ccc(F)cc2)[nH]1 [Compound 239] | – | – | – | – | 15.3 | 20600 | 13.9 | > 45000 |
| CCC(=O)CCCCC[C@H](NC(=O)[C@H]1CC12CCN(C)CC2)c1[nH]c(-c2ccc(F)cc2)nc1Cl [Compound 240] | – | – | – | – | 2.95 | 26700 | 5.73 | 38400 |
| CCC(=O)CCCCC[C@H](NC(=O)C1CC12CCN(CC)CC2)c1nc(-c2ccc(F)cc2)[nH]c1-c1cnc(OC)nc1 (some centres unmarked) [Compound 247] | – | – | – | – | 35.9 | 21800 | 39 | > 45000 |
| CCC(=O)CCCCC[C@H](NC(=O)C1CC12CCN(CC)CC2)c1nc(-c2ccc(F)cc2)[nH]c1-c1cn[nH]c1 (some centres unmarked) [Compound 249] | – | – | – | – | 20.1 | 31500 | 17.4 | 19300 |
| CCC(=O)CCCCC[C@H](NC(=O)C1CC12CCN(CC)CC2)c1nc(-c2ccc(F)cc2)[nH]c1-c1ccn(C)c1 (some centres unmarked) [Compound 251] | – | – | – | – | 1.82 | 29400 | 2.73 | 41700 |
| CCC(=O)CCCCC[C@H](NC(=O)C1CC12CCN(CC)CC2)c1nc(-c2ccc(F)cc2)[nH]c1-c1cccs1 (some centres unmarked) [Compound 252] | – | – | – | – | 66.1 | 29600 | 56.6 | 33900 |
| CCC(=O)CCCCCC(NC(=O)C1CC12CCN(CC)CC2)c1nc(-c2ccc(F)cc2)[nH]c1-c1ccnn1C (centres unmarked) [Compound 253] | – | – | – | – | 16.7 | 26800 | 30.4 | > 45000 |
| CCCn1cc(-c2[nH]c(-c3ccc(F)cc3)nc2C(CCCCCC(=O)CC)NC(=O)C2CC23CCN(CC)CC3)cn1 (centres unmarked) [Compound 254] | – | – | – | – | 29.6 | 38700 | 29.4 | > 45000 |
| CCC(=O)CCCCC[C@H](NC(=O)[C@H]1CC12CCN(C)CC2)c1ncc(-c2cnc(OC)nc2)[nH]1 [Compound 255] | – | – | – | – | 81.9 | 5790 | 168 | 12100 |
| CCC(=O)CCCCC[C@H](NC(=O)[C@H]1CC12CCN(C)CC2)c1ncc(-c2cnc3c(c2)ncn3C)[nH]1 [Compound 256] | – | – | – | – | 57.9 | 1100 | 74.6 | 3930 |
| CCC(=O)CCCCC[C@H](NC(=O)[C@H]1CC12CCN(C)CC2)c1ncc(-c2ccc3c(c2)c2ccccc2n3C)[nH]1 [Compound 265] | – | – | – | – | 3.86 | 4600 | 5.14 | 630 |
| CCC(=O)CCCCC[C@H](NC(=O)C1=NOC2(CCN(CC)CC2)C1)c1ncc(-c2cc3ccc(C)nc3cc2F)o1 [Compound 269] | – | – | – | – | 8.3 | > 900 | 5.18 | > 900 |
| CCC(=O)CCCCC[C@H](NC(=O)C1CCC2(CC1)CN(C(C)C)C2)c1ncc(-c2cc3ccccc3nc2OC)[nH]1 [Compound 272] | – | – | – | – | < 1.5 | 1250 | 2.08 | 449 |
